According to ChEMBL document CHEMBL4346703, “Structure Overhaul Affords a Potent Purine PI3Kδ Inhibitor with Improved Tolerability” (J Med Chem, 2019):
Each block holds one compound with its values, some of them ahead of it.

Key:
[1] = molecular target: PI3-kinase p110-alpha/p85-alpha (Homo sapiens, UniProt P42336); experiment: Inhibition of N-terminal His6-tagged recombinant full length human p110alpha/untagged recombinant full length human p85alpha expressed in baculovirus infected Sf21 insect cells using PIP2 as substrate preincubated for 15 mins followed by substrate addition and measured after 1 hr by HTRF assay
Sequence of PI3-kinase p110-alpha/p85-alpha (P27986 whole entry, canonical isoform): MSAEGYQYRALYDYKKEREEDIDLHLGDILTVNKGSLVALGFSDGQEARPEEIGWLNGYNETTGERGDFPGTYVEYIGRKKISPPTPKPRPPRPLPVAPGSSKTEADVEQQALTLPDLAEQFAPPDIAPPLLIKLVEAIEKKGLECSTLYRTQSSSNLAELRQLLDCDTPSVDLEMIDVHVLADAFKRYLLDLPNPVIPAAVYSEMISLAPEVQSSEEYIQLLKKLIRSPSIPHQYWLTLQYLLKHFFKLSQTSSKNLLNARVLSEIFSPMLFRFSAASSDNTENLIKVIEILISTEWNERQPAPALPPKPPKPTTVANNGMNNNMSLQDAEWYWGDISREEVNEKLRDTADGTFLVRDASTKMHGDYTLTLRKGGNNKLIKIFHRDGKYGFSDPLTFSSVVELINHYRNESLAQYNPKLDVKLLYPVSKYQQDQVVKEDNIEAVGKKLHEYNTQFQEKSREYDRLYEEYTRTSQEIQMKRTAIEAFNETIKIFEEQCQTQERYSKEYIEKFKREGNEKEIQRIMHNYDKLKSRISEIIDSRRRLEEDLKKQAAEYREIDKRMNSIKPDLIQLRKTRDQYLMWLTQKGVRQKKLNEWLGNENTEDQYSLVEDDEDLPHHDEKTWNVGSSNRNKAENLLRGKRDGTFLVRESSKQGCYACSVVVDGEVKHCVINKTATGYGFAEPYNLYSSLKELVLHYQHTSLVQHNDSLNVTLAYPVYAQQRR
Sequence of PI3-kinase p110-alpha/p85-alpha (P42336 whole entry, canonical isoform): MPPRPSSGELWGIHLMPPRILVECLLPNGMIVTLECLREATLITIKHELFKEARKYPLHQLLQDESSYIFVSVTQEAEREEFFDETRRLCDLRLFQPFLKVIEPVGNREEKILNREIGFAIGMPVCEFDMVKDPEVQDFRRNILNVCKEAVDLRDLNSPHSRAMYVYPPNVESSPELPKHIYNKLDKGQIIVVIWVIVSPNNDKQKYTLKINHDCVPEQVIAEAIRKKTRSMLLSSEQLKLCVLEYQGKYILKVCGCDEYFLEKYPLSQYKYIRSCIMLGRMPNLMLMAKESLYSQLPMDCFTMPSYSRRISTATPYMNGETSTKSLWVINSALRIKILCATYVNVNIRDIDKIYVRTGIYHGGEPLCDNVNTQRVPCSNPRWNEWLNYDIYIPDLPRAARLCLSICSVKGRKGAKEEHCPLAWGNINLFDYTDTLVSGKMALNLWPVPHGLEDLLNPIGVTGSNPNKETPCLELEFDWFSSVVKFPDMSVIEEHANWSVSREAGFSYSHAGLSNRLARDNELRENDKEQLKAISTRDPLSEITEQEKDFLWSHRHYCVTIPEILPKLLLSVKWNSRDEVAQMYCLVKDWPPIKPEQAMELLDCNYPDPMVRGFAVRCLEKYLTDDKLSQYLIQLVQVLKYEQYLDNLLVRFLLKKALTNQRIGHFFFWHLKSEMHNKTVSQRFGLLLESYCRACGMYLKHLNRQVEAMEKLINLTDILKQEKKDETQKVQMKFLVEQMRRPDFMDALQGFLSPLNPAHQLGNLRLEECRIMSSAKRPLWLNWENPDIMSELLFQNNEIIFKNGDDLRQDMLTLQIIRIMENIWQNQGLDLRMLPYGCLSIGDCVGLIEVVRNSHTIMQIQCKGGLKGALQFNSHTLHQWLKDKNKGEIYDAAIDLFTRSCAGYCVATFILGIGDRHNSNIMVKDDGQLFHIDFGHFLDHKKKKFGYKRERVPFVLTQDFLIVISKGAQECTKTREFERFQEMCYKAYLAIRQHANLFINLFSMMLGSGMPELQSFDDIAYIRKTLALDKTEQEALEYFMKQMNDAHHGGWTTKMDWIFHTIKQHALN

[2] = molecular target: T1, Phosphatidylinositol 4,5-bisphosphate 3-kinase catalytic subunit delta isoform (Homo sapiens, UniProt O00329); experiment: Inhibition of PI3Kdelta in human Ramos cells assessed as reduction in anti-IgM-antibody-induced phosphorylation of AKT at Ser473 residue preincubated for 20 mins followed by anti-IgM antibody stimulation and measured after 30 mins by alphascreen assay; format: cell-based
T1 sequence (O00329 whole entry): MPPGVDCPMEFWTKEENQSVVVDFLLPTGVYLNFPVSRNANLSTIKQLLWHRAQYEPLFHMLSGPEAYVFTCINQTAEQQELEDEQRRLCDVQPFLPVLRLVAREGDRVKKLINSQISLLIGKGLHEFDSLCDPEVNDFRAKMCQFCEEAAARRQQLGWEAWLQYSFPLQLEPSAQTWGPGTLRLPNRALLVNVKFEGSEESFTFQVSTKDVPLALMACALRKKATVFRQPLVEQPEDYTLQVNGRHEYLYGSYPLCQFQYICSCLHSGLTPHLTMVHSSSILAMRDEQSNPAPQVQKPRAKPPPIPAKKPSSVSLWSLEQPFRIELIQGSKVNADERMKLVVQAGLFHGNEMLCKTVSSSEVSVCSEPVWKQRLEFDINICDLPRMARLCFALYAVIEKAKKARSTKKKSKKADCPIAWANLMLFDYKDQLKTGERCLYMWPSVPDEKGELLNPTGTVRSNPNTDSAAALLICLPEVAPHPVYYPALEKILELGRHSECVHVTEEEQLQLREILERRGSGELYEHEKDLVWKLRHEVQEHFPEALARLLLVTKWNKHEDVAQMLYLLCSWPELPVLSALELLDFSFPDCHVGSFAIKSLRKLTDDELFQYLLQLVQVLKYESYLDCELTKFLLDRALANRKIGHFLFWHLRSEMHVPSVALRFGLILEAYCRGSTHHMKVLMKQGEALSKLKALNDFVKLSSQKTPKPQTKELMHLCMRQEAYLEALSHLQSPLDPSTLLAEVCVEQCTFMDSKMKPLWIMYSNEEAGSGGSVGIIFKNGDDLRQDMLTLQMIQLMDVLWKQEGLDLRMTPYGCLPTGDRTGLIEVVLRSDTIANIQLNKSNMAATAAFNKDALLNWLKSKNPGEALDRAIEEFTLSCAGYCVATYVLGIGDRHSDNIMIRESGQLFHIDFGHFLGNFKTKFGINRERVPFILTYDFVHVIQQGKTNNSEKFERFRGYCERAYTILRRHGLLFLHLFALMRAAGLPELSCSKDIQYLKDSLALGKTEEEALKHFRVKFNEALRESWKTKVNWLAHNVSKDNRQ

[3] = Inhibition of adenosine transporter in human HeLa cells assessed as reduction in [3H]adenosine uptake preincubated for 30 mins followed by [3H]adenosine addition and measured after 60 mins; format: ADME, cell-based
Homo sapiens = species: Homo sapiens; experiment: Selectivity ratio of IC50 for N-terminal His6-tagged recombinant full length human p110alpha/untagged recombinant full length human p85alpha expressed in baculovirus infected Sf21 insect cells to IC50 for N-terminal His6-tagged recombinant full length human p110delta/untagged recombinant full length human p85alpha expressed in baculovirus infected Sf21 insect cells
[4] = molecular target: PI3-kinase p110-delta/p85-alpha (Homo sapiens, UniProt O00329); experiment: Inhibition of N-terminal His6-tagged recombinant full length human p110delta/untagged recombinant full length human p85alpha expressed in baculovirus infected Sf21 insect cells using PIP2 as substrate preincubated for 15 mins followed by substrate addition and measured after 1 hr by HTRF assay
Sequence of PI3-kinase p110-delta/p85-alpha (P27986 whole entry, one chain of several): as the sequence (P27986 whole entry, canonical isoform) above

Phosphodiesterase 1 = Phosphodiesterase 1 (Homo sapiens, UniProt P54750+Q01064+Q14123); experiment: Inhibition of PDE1 (unknown origin); format: protein assay
[5] = molecular target: cGMP-dependent 3',5'-cyclic phosphodiesterase (Homo sapiens, UniProt O00408); experiment: Inhibition of PDE2 (unknown origin)
Sequence of cGMP-dependent 3',5'-cyclic phosphodiesterase (O00408 whole entry): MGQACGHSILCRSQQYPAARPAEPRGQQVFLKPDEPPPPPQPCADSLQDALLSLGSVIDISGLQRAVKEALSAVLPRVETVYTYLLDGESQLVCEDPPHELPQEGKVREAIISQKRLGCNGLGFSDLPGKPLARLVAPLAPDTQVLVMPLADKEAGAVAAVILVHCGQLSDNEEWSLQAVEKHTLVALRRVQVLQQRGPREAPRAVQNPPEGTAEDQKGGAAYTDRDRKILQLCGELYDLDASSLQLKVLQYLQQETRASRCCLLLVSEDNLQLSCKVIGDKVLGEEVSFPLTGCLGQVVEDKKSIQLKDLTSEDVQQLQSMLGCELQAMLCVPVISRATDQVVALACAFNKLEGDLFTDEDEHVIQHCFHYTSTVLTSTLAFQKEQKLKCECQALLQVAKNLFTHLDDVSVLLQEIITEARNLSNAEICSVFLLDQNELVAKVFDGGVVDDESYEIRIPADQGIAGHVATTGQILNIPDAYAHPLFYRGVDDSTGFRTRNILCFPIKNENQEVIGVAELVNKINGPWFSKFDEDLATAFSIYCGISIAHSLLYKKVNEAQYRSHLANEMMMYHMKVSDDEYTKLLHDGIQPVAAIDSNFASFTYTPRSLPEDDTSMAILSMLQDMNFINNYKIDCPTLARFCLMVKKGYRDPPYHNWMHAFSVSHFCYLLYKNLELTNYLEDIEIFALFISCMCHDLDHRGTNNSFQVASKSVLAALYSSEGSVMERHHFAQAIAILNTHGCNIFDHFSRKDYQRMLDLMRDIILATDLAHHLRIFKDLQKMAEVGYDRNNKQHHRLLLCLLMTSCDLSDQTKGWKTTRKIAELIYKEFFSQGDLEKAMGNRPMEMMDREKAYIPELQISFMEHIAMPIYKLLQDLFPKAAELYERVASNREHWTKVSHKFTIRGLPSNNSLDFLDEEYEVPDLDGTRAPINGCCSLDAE

Phosphodiesterase 3 = Phosphodiesterase 3 (Homo sapiens, UniProt Q14432+Q13370); experiment: Inhibition of PDE3 (unknown origin); format: protein assay
Phosphodiesterase 4 = Phosphodiesterase 4 (Homo sapiens, UniProt P27815+Q08499+Q07343+Q08493); experiment: Inhibition of PDE4 (unknown origin); format: protein assay
[6] = molecular target: cGMP-specific 3',5'-cyclic phosphodiesterase (Homo sapiens, UniProt O76074); experiment: Inhibition of PDE5 (unknown origin)
Phosphodiesterase 6 = experiment: Inhibition of PDE6 (unknown origin); format: protein assay, Homo sapiens
Phosphodiesterase 7 = Phosphodiesterase 7 (Homo sapiens, UniProt Q13946+Q9NP56); experiment: Inhibition of PDE7 (unknown origin); format: protein assay
[7] = molecular target: High affinity cAMP-specific and IBMX-insensitive 3',5'-cyclic phosphodiesterase 8A (Homo sapiens, UniProt O60658); experiment: Inhibition of PDE8 (unknown origin)
[8] = molecular target: High affinity cGMP-specific 3',5'-cyclic phosphodiesterase 9A (Homo sapiens, UniProt O76083); experiment: Inhibition of PDE9 (unknown origin)
[9] = molecular target: cAMP and cAMP-inhibited cGMP 3',5'-cyclic phosphodiesterase 10A (Homo sapiens, UniProt Q9Y233); experiment: Inhibition of PDE10 (unknown origin)
Sequence of cAMP and cAMP-inhibited cGMP 3',5'-cyclic phosphodiesterase 10A (Q9Y233 whole entry): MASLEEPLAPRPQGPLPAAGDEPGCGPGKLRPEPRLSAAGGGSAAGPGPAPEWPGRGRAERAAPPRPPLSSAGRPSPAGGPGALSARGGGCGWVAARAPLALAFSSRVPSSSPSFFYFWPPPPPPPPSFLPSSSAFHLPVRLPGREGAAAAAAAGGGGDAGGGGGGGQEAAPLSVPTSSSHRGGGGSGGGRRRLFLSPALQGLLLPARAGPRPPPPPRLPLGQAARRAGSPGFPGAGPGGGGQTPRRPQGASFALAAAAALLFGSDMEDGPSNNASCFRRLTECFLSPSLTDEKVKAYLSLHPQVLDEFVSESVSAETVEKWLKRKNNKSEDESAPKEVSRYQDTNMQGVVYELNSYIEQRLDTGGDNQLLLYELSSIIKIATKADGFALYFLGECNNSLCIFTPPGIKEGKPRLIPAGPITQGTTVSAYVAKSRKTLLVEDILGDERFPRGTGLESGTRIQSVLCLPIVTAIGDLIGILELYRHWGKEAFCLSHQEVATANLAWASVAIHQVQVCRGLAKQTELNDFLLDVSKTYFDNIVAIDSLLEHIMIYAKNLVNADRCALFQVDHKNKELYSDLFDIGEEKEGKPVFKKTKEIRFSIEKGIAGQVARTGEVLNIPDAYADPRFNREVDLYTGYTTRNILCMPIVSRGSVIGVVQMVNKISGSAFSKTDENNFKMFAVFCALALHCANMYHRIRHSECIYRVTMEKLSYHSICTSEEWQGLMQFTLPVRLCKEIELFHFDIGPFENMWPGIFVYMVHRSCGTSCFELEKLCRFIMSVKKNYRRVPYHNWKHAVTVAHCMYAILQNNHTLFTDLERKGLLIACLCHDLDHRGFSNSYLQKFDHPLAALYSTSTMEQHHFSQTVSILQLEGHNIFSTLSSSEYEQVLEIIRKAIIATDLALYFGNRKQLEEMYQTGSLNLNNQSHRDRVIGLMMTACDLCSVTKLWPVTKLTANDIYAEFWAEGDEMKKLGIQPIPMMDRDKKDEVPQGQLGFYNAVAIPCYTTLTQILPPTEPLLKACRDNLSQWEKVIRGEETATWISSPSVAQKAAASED

[10] = molecular target: Dual 3',5'-cyclic-AMP and -GMP phosphodiesterase 11A (Homo sapiens, UniProt Q9HCR9); experiment: Inhibition of PDE11 (unknown origin)
Sequence of Dual 3',5'-cyclic-AMP and -GMP phosphodiesterase 11A (Q9HCR9 whole entry): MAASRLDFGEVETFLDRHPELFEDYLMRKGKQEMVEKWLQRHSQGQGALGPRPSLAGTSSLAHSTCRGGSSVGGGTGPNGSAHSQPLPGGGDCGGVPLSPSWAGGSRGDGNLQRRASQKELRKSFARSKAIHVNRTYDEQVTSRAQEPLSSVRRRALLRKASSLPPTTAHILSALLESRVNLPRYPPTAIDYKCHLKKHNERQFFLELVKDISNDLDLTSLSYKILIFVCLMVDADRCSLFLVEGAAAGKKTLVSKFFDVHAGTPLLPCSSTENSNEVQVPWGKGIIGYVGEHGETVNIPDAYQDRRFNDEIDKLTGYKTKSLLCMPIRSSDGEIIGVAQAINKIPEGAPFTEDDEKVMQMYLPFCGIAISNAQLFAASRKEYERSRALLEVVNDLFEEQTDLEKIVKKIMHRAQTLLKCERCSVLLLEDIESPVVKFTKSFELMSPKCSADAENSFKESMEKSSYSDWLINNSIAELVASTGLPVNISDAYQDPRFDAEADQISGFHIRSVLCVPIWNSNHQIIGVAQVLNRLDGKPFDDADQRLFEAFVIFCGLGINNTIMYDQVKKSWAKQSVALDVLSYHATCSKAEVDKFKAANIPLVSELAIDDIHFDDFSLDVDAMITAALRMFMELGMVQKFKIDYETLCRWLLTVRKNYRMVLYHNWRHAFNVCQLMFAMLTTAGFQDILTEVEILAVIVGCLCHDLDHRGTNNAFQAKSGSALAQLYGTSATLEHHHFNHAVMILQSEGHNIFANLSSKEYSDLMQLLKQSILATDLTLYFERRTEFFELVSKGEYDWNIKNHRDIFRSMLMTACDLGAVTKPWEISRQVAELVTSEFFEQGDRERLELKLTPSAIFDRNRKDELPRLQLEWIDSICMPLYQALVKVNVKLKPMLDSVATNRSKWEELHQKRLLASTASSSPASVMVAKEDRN

[11] = Plasma clearance in Wistar Han rat at 0.5 mg/kg, iv or 1 mg/kg, po; format: ADME, organism-based
[12] = Volume of distribution in Wistar Han rat; format: ADME; settings: in vivo
[13] = Unbound volume of distribution in Wistar Han rat; format: ADME; settings: in vivo
[14] = Half-life in Wistar Han rat; format: ADME; settings: in vivo
[15] = Protein binding in Wistar Han rat plasma; format: ADME, cell-free; settings: read-out: PPB (converted)
[16] = Lipophilicity, log D of the compound; format: physicochemical; settings: octanol/water
[17] = Plasma clearance in Wistar Han rat at 0.05 mg/kg; format: ADME, organism-based
[18] = Plasma clearance in Beagle dog at 0.05 mg/kg; format: ADME, organism-based, Canis lupus familiaris
[19] = Intrinsic clearance in Beagle dog at 0.05 mg/kg; format: ADME, organism-based, Canis lupus familiaris; settings: in vivo
[20] = Volume of distribution in Beagle dog; format: ADME, Canis lupus familiaris; settings: in vivo
[21] = Unbound volume of distribution in Beagle dog; format: ADME, Canis lupus familiaris; settings: in vivo
[22] = Half-life in Beagle dog; format: ADME, Canis lupus familiaris; settings: in vivo
[23] = Protein binding in Beagle dog plasma; format: ADME, cell-free, Canis lupus familiaris; settings: read-out: PPB (converted)
[24] = Intrinsic clearance in Wistar Han rat at 0.05 mg/kg; format: ADME, organism-based; settings: in vivo
[25] = Intrinsic clearance in Wistar Han rat at 0.5 mg/kg, iv or 1 mg/kg, po; format: ADME, organism-based; settings: in vivo
[26] = Oral bioavailability in Wistar Han rat; format: ADME, organism-based; settings: in vivo

IC50 [1]: 453 nM
IC50 [2]: 2770 nM
IC50 [3]: > 10000 nM
Compound: CCn1ncc(-c2nc3c(NC4CN(C(=O)C5CCOCC5)C4)ncnc3n2C)c1C
Ratio IC50 (Homo sapiens): 28

IC50 [1]: 1070 nM
IC50 [4]: 34 nM
IC50 [2]: 1470 nM
IC50 [3]: > 10000 nM
Compound: CC[C@H](Nc1ncnc2c1nc(-c1cnn(CC)c1C)n2C)C(=O)N(C)C

IC50 [1]: 274 nM
Compound: CC[C@H](Nc1ncnc2c1nc(-c1cnn(CC)c1C)n2C)C(=O)N1CCOCC1

IC50 [1]: 35 nM
IC50 [4]: 0.5 nM
IC50 [2]: 16 nM
IC50 [3]: 9190 nM
IC50 (Phosphodiesterase 1): > 20000 nM
IC50 [5]: > 20000 nM
IC50 (Phosphodiesterase 3): > 20000 nM
IC50 (Phosphodiesterase 4): > 20000 nM
IC50 [6]: > 20000 nM
IC50 (Phosphodiesterase 6): > 20000 nM
IC50 (Phosphodiesterase 7): > 20000 nM
IC50 [7]: > 20000 nM
IC50 [8]: > 20000 nM
IC50 [9]: > 20000 nM
IC50 [10]: > 20000 nM
clearance [11]: 95 mL/min/kg
Vd [12]: 1.7 L/kg
Vdu [13]: 3 L/kg
half-life [14]: 12 min
fraction unbound [15]: 0.52
logD [16]: 0.8
clearance [17]: 95 mL/min/kg
Compound: CCn1ncc(-c2nc3c(N[C@H]4CCN(C(=O)C5CCOCC5)C4)ncnc3n2C)c1C

IC50 [1]: 1310 nM
IC50 [2]: 1290 nM
IC50 [3]: 2560 nM
Compound: CCCN1CC[C@H](Nc2ncnc3c2nc(-c2cnn(CC)c2C)n3C)C1

IC50 [1]: 1190 nM
IC50 [4]: 800 nM
IC50 [3]: > 10000 nM
Compound: CCC(=O)N1CCC(Nc2ncnc3c2nc(-c2cnn(CC)c2C)n3C)CC1

IC50 [1]: > 10000 nM
IC50 [4]: 294 nM
IC50 [2]: 8330 nM
IC50 [3]: > 10000 nM
Compound: CCn1ncc(-c2nc3c(CC4CCN(C(=O)C5CCOCC5)C4)ncnc3n2C)c1C (racemic)

IC50 [1]: 540 nM
IC50 [4]: 26 nM
IC50 [2]: 187 nM
IC50 [3]: > 1000 nM
Compound: CCC(=O)N1CC[C@@H](Nc2ncnc3c2nc(-c2cnn(CC)c2C)n3C)C1

IC50 [1]: 262 nM
IC50 [3]: 3130 nM
Vd [12]: 1.1 L/kg
Vdu [13]: 3 L/kg
half-life [14]: 18 min
fraction unbound [15]: 0.42
clearance [18]: 7.9 mL/min/kg
CL [19]: 25 mL/min/kg
Vd [20]: 0.9 L/kg
Vdu [21]: 2 L/kg
half-life [22]: 72 min
fraction unbound [23]: 0.42
logD [16]: 1.7
clearance [17]: 50 mL/min/kg
CL [24]: 290 mL/min/kg
Compound: CC[C@H](Nc1ncnc2c1nc(-c1cnn(CC)c1C)n2C)C(=O)N1C[C@@H](C)O[C@@H](C)C1

IC50 [1]: 169 nM
IC50 [4]: 5.3 nM
IC50 [2]: 190 nM
IC50 [3]: 7480 nM
clearance [11]: 23 mL/min/kg
CL [25]: 98 mL/min/kg
Vd [12]: 0.8 L/kg
Vdu [13]: 2 L/kg
half-life [14]: 24 min
bioavailability [26]: 52%
fraction unbound [15]: 0.33
clearance [18]: 4.1 mL/min/kg
CL [19]: 8 mL/min/kg
Vd [20]: 0.9 L/kg
Vdu [21]: 2 L/kg
half-life [22]: 162 min
fraction unbound [23]: 0.59
logD [16]: 1.2
Compound: CCn1ncc(-c2nc3c(O[C@H]4CCN(C(=O)C5CC5)C4)ncnc3n2C)c1C

IC50 [1]: 338 nM
IC50 [2]: 309 nM
IC50 [3]: 3910 nM
Compound: CCC(=O)N1CCC[C@H](Nc2ncnc3c2nc(-c2cnn(CC)c2C)n3C)C1
